{
  "source": "patent EP2308883A1",
  "about": "“New derivatives of thieno[2,3-b]pyridine and 5,6,7,8 tetrahydrothieno[2,3 b]quinoline in particular useful in the treatment of malaria” (priority 2009, dated 2011)",
  "key": {"[1]": {"tested_on": "panel of 22 purified kinases, including 4 P. falciparum kinases", "test": "Small panel of 22 purified kinases", "format": "biochemical", "conditions": "at concentrations up to 10 µM", "description": "(§1) Compound No. 22 was also tested on a small panel of 22 purified kinases, including 4 P. falciparum kinases. […] To complement this selectivity study, compound No 22 was run on two large scale selectivity panels: Prof. P. Cohen's kinase selectivity panel (76 kinases) (Bain J, Plater L, Elliott M, Shapiro N, Hastie CJ, McLauchlan H et al. (2007). The selectivity of protein kinase inhibitors: a further update. Biochem J. 408: 297-315.) and the Ambit Biosciences interaction assay (402 kinases) (Karaman MW, Herrgard S, Treiber DK, Gallant P, Atteridge CE, Campbell BT, Chan KW, Ciceri P, Davis MI, Edeen PT, Faraoni R, Floyd M, Hunt JP, Lockhart DJ, Milanov ZV, Morrison MJ, Pallares G, Patel HK, Pritchard S, Wodicka LM, Zarrinkar PP. A quantitative analysis of kinase inhibitor selectivity. Nat Biotechnol. 2008 Jan;26(1):127-32.)."}, "mammalian kinases": {"tested_on": "mammalian kinases", "conditions": "compared with roscovitine and staurosporine", "description": "as §1"}},
  "data": [
    {"smiles": "N#Cc1c(N)nc2sc(C(=O)c3cccc(Cl)c3)c(N)c2c1-c1ccccc1Cl", "note": "[Compound 22, 3,6-diamino-2-(3-chlorobenzoyl)-4-(2-chlorophenyl)thieno[2,3-b]pyridine-5-carbonitrile]", "values": [
      {"measurement": "inhibition of kinases of the panel besides PfGSK-3", "setting": "[1]", "result": "no kinase was found to be inhibited"},
      {"measurement": "inhibition of mammalian kinases in selectivity panels", "setting": "mammalian kinases", "result": "very poor, if at all, inhibitor of mammalian kinases"}
    ]}
  ]
}
